Reference: patent US9441238B2, “Compositions and methods for modulating the sensitivity of cells to AHAS inhibitors” (SYNTHETIC GENOMICS, INC., priority 2012, dated 2016)

Experiments:
AHAS = details: previously reported, several organisms; cited from earlier work
Nannochloropsis sp. = experiment: Growth inhibition of Nannochloropsis by herbicide in growth media; format: cell-based

COC(=O)c1ccccc1S(=O)(=O)NC(=O)Nc1nc(C)nc(OC)n1 [metsulfuron methyl]
inhibitor of AHAS activity (AHAS): potent inhibitor
growth of Nannochloropsis sp. (Nannochloropsis sp.): strongly inhibited
concentration that could be used to effectively suppress wild-type growth (Nannochloropsis sp.; wild-type): 30 µM
